Earlier results on ten compounds are cited in patent US7553503B2, “Phyto-nutraceutical synergistic composition for Parkinson's Disease” (priority 2006, dated 2009).

One data set has as its system ischemic brain injury. As to conditions: transient focal ischemia.
The test system of data set [1] is bacterial resistance mechanism (multidrug pump). The note with it: in vitro, with 5'-methoxyhydnocarpin.
Data set [2] deals with HIV-1 viral long terminal repeat-directed gene expression.
In the next data set the test system is substantia nigra neurons. As to conditions: MPTP-induced.
For data set [3], the system named is brain mitochondria and membranes.
The subject of another data set is mouse brain. As to conditions: pretreatment.
Data set [4] deals with patients with early-stage Parkinson's disease.
The next data set concerns the target dopamine D1 receptors (Homo sapiens, UniProt P21728).
The subject of data set [5] is alpha 1-adrenergic receptors.
Another data set addresses dopamine D2 receptors (Homo sapiens, UniProt P14416).
For data set [6], the system named is dopamine and DOPAC in striatum, DA in hypothalamus. The note with it: after administration.
Data set [7] concerns alpha 2-adrenergic receptors.
In data set [8] the test system is patients with tardive dyskinesia. The note with it: especially tardive dyskinesia for 5 years or less.

dopamine D2 receptors, sequence (P14416 whole entry): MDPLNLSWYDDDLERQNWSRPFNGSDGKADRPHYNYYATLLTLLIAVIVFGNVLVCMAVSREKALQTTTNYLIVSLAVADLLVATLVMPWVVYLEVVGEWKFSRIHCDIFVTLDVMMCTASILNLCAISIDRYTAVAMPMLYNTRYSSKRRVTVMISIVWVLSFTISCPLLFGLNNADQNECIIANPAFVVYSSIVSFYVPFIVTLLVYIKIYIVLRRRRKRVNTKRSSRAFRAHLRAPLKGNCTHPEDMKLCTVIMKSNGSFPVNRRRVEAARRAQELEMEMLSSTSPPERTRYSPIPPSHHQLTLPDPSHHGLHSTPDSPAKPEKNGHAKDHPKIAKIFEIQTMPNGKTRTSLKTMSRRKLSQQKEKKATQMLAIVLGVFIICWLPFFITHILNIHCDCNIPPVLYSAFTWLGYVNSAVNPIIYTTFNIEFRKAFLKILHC
dopamine D1 receptors, sequence (P21728 whole entry): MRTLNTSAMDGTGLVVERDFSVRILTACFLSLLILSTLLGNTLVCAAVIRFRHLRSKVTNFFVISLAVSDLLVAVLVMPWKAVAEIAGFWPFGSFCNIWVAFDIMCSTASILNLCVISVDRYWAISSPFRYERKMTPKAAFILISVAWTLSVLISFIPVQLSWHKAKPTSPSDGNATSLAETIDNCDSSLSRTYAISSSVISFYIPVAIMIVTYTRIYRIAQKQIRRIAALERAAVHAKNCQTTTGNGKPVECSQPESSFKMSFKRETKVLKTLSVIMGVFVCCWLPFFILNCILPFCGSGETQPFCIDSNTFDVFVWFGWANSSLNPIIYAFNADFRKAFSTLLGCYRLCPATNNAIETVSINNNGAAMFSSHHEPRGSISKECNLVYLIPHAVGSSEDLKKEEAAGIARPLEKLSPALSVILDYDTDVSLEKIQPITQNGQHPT

As to `CC(C)(O)[C@@H]1CC[C@](C)([C@H]2[C@@H](O)C[C@@]3(C)[C@@H]4C[C@H](O[C@@H]5O[C@H](CO)[C@@H](O)[C@H](O)[C@H]5O)[C@H]5C(C)(C)[C@@H](O[C@@H]6OC[C@@H](O)[C@H](O)[C@H]6O)CC[C@@]56C[C@@]46CC[C@]23C)O1` [Astragaloside IV], the infarct volume result in the data set with ischemic brain injury is “markedly and significantly reduced”. With `COc1ccc2cc3[n+](cc2c1OC)CCc1cc2c(cc1-3)OCO2` [Berberine], in data set [1], the “activity of Berberine alkaloids in the presence of 5'-MHC” value was “strongly potentiated”. As to `CC1(C)CCC2=C(O1)c1ccccc1C(=O)C2=O` [Beta-lapachone], in data set [2], the “inhibition of HIV-1 viral long terminal repeat-directed gene expression” value was “potent and selective inhibitor”. Consider `CC(C)=CCC[C@](C)(O[C@@H]1O[C@H](CO)[C@@H](O)[C@H](O)[C@H]1O)[C@H]1CC[C@]2(C)[C@@H]1[C@H](O)C[C@@H]1[C@@]3(C)CC[C@H](O)C(C)(C)[C@@H]3[C@@H](O[C@@H]3O[C@H](CO)[C@@H](O)[C@H](O)[C@H]3O)C[C@]12C` [Ginsenoside Rg1], for which the “substantia nigra neurons loss” value in the data set with substantia nigra neurons was “protect against substantia nigra neurons loss”. Regarding `COc1cc2c(c(O)c1OC)-c1c(cc(OC)c(OC)c1OC)C[C@@H](C)[C@@H](C)C2` [Schisanhenol], in [3], the “peroxidative damages of brain mitochondria and membranes” value is “completely inhibited”. On to `COc1cc2c(c(OC)c1OC)-c1c(cc(OC)c(OC)c1OC)C[C@](C)(O)[C@@H](C)C2` [Schizandrin], for which the “potency of protective action against oxidative stress relative to Schisanhenol” value in [3] is listed as “weaker than that of Schisanhenol”. In the case of `COc1cc2c(c(OC)c1OC)-c1c(cc3c(c1OC)OCO3)CC(C)C(C)C2` (stereo not drawn) [Schizandrins B], the “extent of lipid peroxidation in brain tissue” value in the data set with mouse brain is on record as “dose-dependent decrease”. As to `COC1=C(OC)C(=O)C(C/C=C(\C)CC/C=C(\C)CC/C=C(\C)CC/C=C(\C)CC/C=C(\C)CC/C=C(\C)CC/C=C(\C)CC/C=C(\C)CC/C=C(\C)CCC=C(C)C)=C(C)C1=O` [coenzyme Q10, Coenzyme Q10], the disease progression entry in [4] was “can slow disease progression”.

Take `COc1cc2c(c(OC)c1OC)-c1c(cc(OC)c(OC)c1OC)C[C@](C)(O)[C@@H](C)C2` [schizandrol A]: the “affinity for dopamine D1 receptors” value on dopamine D1 receptors is “no affinity”. For the same compound, the “affinity for serotonin receptors” value in the data set on serotonin receptors was “no affinity”. For the same compound, the “affinity for alpha 1-adrenergic receptors” value in [5] was “no affinity”. For the same compound, at dopamine D2 receptors, the “affinity for dopamine D2 receptors” value is “no affinity”. Further, the “dopamine and its metabolite DOPAC (in striatum) and DA (in hypothalamus)” value in data set [6] was “Significant elevations”. Moreover, the “affinity for alpha 2-adrenergic receptors” value in [7] is “no affinity”.

On to Vitamin E, for which the “severity of tardive dyskinesia” value in data set [8] is on record as “appears to be effective”.
